Measured values published in patent publication US10799522B2, “Compositions and methods relating to galectin detection” (Wayne State University, priority 2015, dated 2020).

Assay: radiation dosimetry estimates for human patients
Details: adult male

OCC1OC(SC2OC(CO)C(O)C(n3cc(-c4cccc([18F])c4)nn3)C2O)C(O)C(n2cc(-c3cccc(F)c3)nn2)C1O [[^18F]FPTDG, 3-(3-[^18F]fluorophenyltriazolyl)-3-deoxy-3′-(3-fluorophenyltriazolyl)-3′-deoxy-1-thio-β-D-digalactopyranoside]
Effective Dose: Effective Dose 6.74 mSv per 370 MBq dose or 10 mCi | Effective Dose Equivalent: Effective Dose Equivalent 6.12 mSv per 370 MBq dose or 10 mCi | Estimated organ dose, Alpha (Total Body): 0 mSv per 370 MBq dose or 10 mCi | Estimated organ dose, Beta (Total Body): 1.79 mSv per 370 MBq dose or 10 mCi | Estimated organ dose, ED Cont. (Total Body): 0.00 mSv per 370 MBq dose or 10 mCi | Estimated organ dose, EDE Cont. (Total Body): 0.00 mSv per 370 MBq dose or 10 mCi | Estimated organ dose, Photon (Total Body): 2.67 mSv per 370 MBq dose or 10 mCi | Estimated organ dose, Total (Total Body): 4.46 mSv per 370 MBq dose or 10 mCi | Estimated organ dose, Alpha (target organ Adrenals): 0 mSv per 370 MBq dose or 10 mCi | Estimated organ dose, Beta (target organ Adrenals): 1.70 mSv per 370 MBq dose or 10 mCi | Estimated organ dose, ED Cont. (target organ Adrenals): 0.03 mSv per 370 MBq dose or 10 mCi | Estimated organ dose, EDE Cont. (target organ Adrenals): 0.00 mSv per 370 MBq dose or 10 mCi | Estimated organ dose, Photon (target organ Adrenals): 3.33 mSv per 370 MBq dose or 10 mCi | Estimated organ dose, Total (target organ Adrenals): 5.03 mSv per 370 MBq dose or 10 mCi | Estimated organ dose, Alpha (target organ Brain): 0 mSv per 370 MBq dose or 10 mCi | Estimated organ dose, Beta (target organ Brain): 1.70 mSv per 370 MBq dose or 10 mCi | Estimated organ dose, ED Cont. (target organ Brain): 0.02 mSv per 370 MBq dose or 10 mCi | Estimated organ dose, EDE Cont. (target organ Brain): 0.00 mSv per 370 MBq dose or 10 mCi | Estimated organ dose, Photon (target organ Brain): 2.22 mSv per 370 MBq dose or 10 mCi | Estimated organ dose, Total (target organ Brain): 3.92 mSv per 370 MBq dose or 10 mCi | Estimated organ dose, Alpha (target organ Breasts): 0 mSv per 370 MBq dose or 10 mCi | Estimated organ dose, Beta (target organ Breasts): 1.70 mSv per 370 MBq dose or 10 mCi | Estimated organ dose, ED Cont. (target organ Breasts): 0.18 mSv per 370 MBq dose or 10 mCi | Estimated organ dose, EDE Cont. (target organ Breasts): 0.54 mSv per 370 MBq dose or 10 mCi | Estimated organ dose, Photon (target organ Breasts): 1.87 mSv per 370 MBq dose or 10 mCi | Estimated organ dose, Total (target organ Breasts): 3.57 mSv per 370 MBq dose or 10 mCi | Estimated organ dose, Alpha (target organ Gallbladder Wall): 0 mSv per 370 MBq dose or 10 mCi | Estimated organ dose, Beta (target organ Gallbladder Wall): 1.70 mSv per 370 MBq dose or 10 mCi | Estimated organ dose, ED Cont. (target organ Gallbladder Wall): 0.00 mSv per 370 MBq dose or 10 mCi | Estimated organ dose, EDE Cont. (target organ Gallbladder Wall): 0.00 mSv per 370 MBq dose or 10 mCi | Estimated organ dose, Photon (target organ Gallbladder Wall): 3.7 mSv per 370 MBq dose or 10 mCi | Estimated organ dose, Total (target organ Gallbladder Wall): 5.40 mSv per 370 MBq dose or 10 mCi | Estimated organ dose, Alpha (target organ Heart Wall): 0 mSv per 370 MBq dose or 10 mCi | Estimated organ dose, Beta (target organ Heart Wall): 1.72 mSv per 370 MBq dose or 10 mCi | Estimated organ dose, ED Cont. (target organ Heart Wall): 0.00 mSv per 370 MBq dose or 10 mCi | Estimated organ dose, EDE Cont. (target organ Heart Wall): 0.00 mSv per 370 MBq dose or 10 mCi | Estimated organ dose, Photon (target organ Heart Wall): 2.76 mSv per 370 MBq dose or 10 mCi | Estimated organ dose, Total (target organ Heart Wall): 4.48 mSv per 370 MBq dose or 10 mCi | Estimated organ dose, Alpha (target organ Kidneys): 0 mSv per 370 MBq dose or 10 mCi | Estimated organ dose, Beta (target organ Kidneys): 1.70 mSv per 370 MBq dose or 10 mCi | Estimated organ dose, ED Cont. (target organ Kidneys): 0.02 mSv per 370 MBq dose or 10 mCi | Estimated organ dose, EDE Cont. (target organ Kidneys): 0.00 mSv per 370 MBq dose or 10 mCi | Estimated organ dose, Photon (target organ Kidneys): 3.24 mSv per 370 MBq dose or 10 mCi | Estimated organ dose, Total (target organ Kidneys): 4.94 mSv per 370 MBq dose or 10 mCi | Estimated organ dose, Alpha (target organ LLI Wall): 0 mSv per 370 MBq dose or 10 mCi | Estimated organ dose, Beta (target organ LLI Wall): 9.25 mSv per 370 MBq dose or 10 mCi | Estimated organ dose, ED Cont. (target organ LLI Wall): 1.72 mSv per 370 MBq dose or 10 mCi | Estimated organ dose, EDE Cont. (target organ LLI Wall): 0.86 mSv per 370 MBq dose or 10 mCi | Estimated organ dose, Photon (target organ LLI Wall): 5.06 mSv per 370 MBq dose or 10 mCi | Estimated organ dose, Total (target organ LLI Wall): 14.30 mSv per 370 MBq dose or 10 mCi | Estimated organ dose, Alpha (target organ Liver): 0 mSv per 370 MBq dose or 10 mCi | Estimated organ dose, Beta (target organ Liver): 1.30 mSv per 370 MBq dose or 10 mCi | Estimated organ dose, ED Cont. (target organ Liver): 0.20 mSv per 370 MBq dose or 10 mCi | Estimated organ dose, EDE Cont. (target organ Liver): 0.00 mSv per 370 MBq dose or 10 mCi | Estimated organ dose, Photon (target organ Liver): 2.79 mSv per 370 MBq dose or 10 mCi | Estimated organ dose, Total (target organ Liver): 4.08 mSv per 370 MBq dose or 10 mCi | Estimated organ dose, Alpha (target organ Lungs): 0 mSv per 370 MBq dose or 10 mCi | Estimated organ dose, Beta (target organ Lungs): 0.03 mSv per 370 MBq dose or 10 mCi | Estimated organ dose, ED Cont. (target organ Lungs): 0.28 mSv per 370 MBq dose or 10 mCi | Estimated organ dose, EDE Cont. (target organ Lungs): 0.28 mSv per 370 MBq dose or 10 mCi | Estimated organ dose, Photon (target organ Lungs): 2.26 mSv per 370 MBq dose or 10 mCi | Estimated organ dose, Total (target organ Lungs): 2.29 mSv per 370 MBq dose or 10 mCi | Estimated organ dose, Alpha (target organ Muscle): 0 mSv per 370 MBq dose or 10 mCi | Estimated organ dose, Beta (target organ Muscle): 1.70 mSv per 370 MBq dose or 10 mCi | Estimated organ dose, ED Cont. (target organ Muscle): 0.02 mSv per 370 MBq dose or 10 mCi | Estimated organ dose, EDE Cont. (target organ Muscle): 0.00 mSv per 370 MBq dose or 10 mCi | Estimated organ dose, Photon (target organ Muscle): 2.68 mSv per 370 MBq dose or 10 mCi | Estimated organ dose, Total (target organ Muscle): 4.38 mSv per 370 MBq dose or 10 mCi | Estimated organ dose, Alpha (target organ Osteogenic Cells): 0 mSv per 370 MBq dose or 10 mCi | Estimated organ dose, Beta (target organ Osteogenic Cells): 3.64 mSv per 370 MBq dose or 10 mCi | Estimated organ dose, ED Cont. (target organ Osteogenic Cells): 0.07 mSv per 370 MBq dose or 10 mCi | Estimated organ dose, EDE Cont. (target organ Osteogenic Cells): 0.21 mSv per 370 MBq dose or 10 mCi | Estimated organ dose, Photon (target organ Osteogenic Cells): 3.17 mSv per 370 MBq dose or 10 mCi | Estimated organ dose, Total (target organ Osteogenic Cells): 6.82 mSv per 370 MBq dose or 10 mCi | Estimated organ dose, Alpha (target organ Ovaries): 0 mSv per 370 MBq dose or 10 mCi | Estimated organ dose, Beta (target organ Ovaries): 1.70 mSv per 370 MBq dose or 10 mCi
